Molecular target: T1, NR2F6 (Homo sapiens, UniProt P10588)
T1 construct: expressed in transfected cells; also transient transfection
T1 sequence (P10588 1-404): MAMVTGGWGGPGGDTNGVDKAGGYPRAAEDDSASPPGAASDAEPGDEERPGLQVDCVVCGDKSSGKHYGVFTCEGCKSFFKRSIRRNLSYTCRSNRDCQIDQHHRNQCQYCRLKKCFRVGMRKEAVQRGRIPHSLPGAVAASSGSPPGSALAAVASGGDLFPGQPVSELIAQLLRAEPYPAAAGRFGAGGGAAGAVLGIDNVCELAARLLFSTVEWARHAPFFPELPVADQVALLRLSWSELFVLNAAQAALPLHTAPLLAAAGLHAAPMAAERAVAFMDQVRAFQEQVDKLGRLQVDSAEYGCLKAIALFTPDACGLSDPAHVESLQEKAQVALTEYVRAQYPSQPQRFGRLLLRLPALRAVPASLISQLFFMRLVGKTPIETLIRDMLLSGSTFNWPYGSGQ
Assay: NR2F6 agonist screening, Firefly signal cmpd/DMSO
Assay type: cell-based
Conditions: for Firefly/Renilla (NR2F6 stable, clone F4): ratio Firefly/Renilla; for Firefly, NR2F6 stable (clone F4)/pGL4: ratio of Firefly in NR2F6 stable clone F4 to pGL4

[1] = C11 analogs follow set (Tables 2-10)

| SMILES | Firefly, cmpd/DMSO repeat 1 [1] | Firefly, cmpd/DMSO repeat 2 [1] | further results |
| --- | --- | --- | --- |
| Cc1ccc(NC(=O)c2ccc3oc(=O)c(S(=O)(=O)c4ccccc4)cc3c2)cc1 [Compound C161] | 35.4 | 39.0 | Firefly/Renilla (NR2F6 stable, clone F4) (Table 13): 1.3; Firefly, NR2F6 stable (clone F4)/pGL4 (Table 13): 8.1; Firefly, cmpd/DMSO repeat 1 (Table 13): 35.4; Firefly, cmpd/DMSO repeat 2 (Table 13): 39.0 |
| Cc1ccc(NC(=O)c2ccc3oc(=O)c(S(=O)(=O)c4ccc(C)cc4)cc3c2)cc1 [Compound C162] | 20.9 | 20.6 |  |
| Cc1ccc(NC(=O)c2ccc3oc(=O)c(S(=O)(=O)c4ccc(F)cc4)cc3c2)cc1 [Compound C163] | 2.0 | 5.2 |  |
| Cc1ccc(NC(=O)c2ccc3oc(=O)c(S(=O)(=O)c4ccccc4)cc3c2)c(C)c1 [Compound C164] | 29.3 | 19.6 | Firefly/Renilla (NR2F6 stable, clone F4) (Table 12): 2.1; Firefly, NR2F6 stable (clone F4)/pGL4 (Table 12): 8.2; Firefly, cmpd/DMSO repeat 1 (Table 12): 29.3; Firefly, cmpd/DMSO repeat 2 (Table 12): 19.6 |
| Cc1ccc(NC(=O)c2ccc3oc(=O)c(S(=O)(=O)c4ccc(Cl)cc4)cc3c2)c(C)c1 [Compound C166] | 3.4 | 4.2 |  |
| Cc1ccc(NC(=O)c2ccc3oc(=O)c(S(=O)(=O)c4ccccc4)cc3c2)cc1C [Compound C167] | 1.0 | 0.7 |  |
| Cc1ccc(S(=O)(=O)c2cc3cc(C(=O)Nc4ccc(C)c(C)c4)ccc3oc2=O)cc1 [Compound C168] | 11.8 | 11.4 |  |
| Cc1ccc(NC(=O)c2ccc3oc(=O)c(S(=O)(=O)c4ccc(F)cc4)cc3c2)cc1C [Compound C169] | 8.8 | 10.6 |  |
| Cc1ccc(NC(=O)c2ccc3oc(=O)c(S(=O)(=O)c4ccc(Cl)cc4)cc3c2)cc1C [Compound C170] | 1.7 | 1.6 |  |
| Cc1ccc(S(=O)(=O)c2cc3cc(C(=O)Nc4cccc(C)c4)ccc3oc2=O)cc1 [Compound C171] | 6.4 | 4.2 |  |
| Cc1cccc(NC(=O)c2ccc3oc(=O)c(S(=O)(=O)c4ccc(Cl)cc4)cc3c2)c1 [Compound C173] | 9.8 | 6.9 |  |
| Cc1cc(C)cc(NC(=O)c2ccc3oc(=O)c(S(=O)(=O)c4ccccc4)cc3c2)c1 [Compound C174] | 5.8 | 14.3 |  |
| Cc1ccc(S(=O)(=O)c2cc3cc(C(=O)Nc4cc(C)cc(C)c4)ccc3oc2=O)cc1 [Compound C175] | 13.2 | 11.9 | Firefly/Renilla (NR2F6 stable, clone F4) (Table 13): 1.1; Firefly, NR2F6 stable (clone F4)/pGL4 (Table 13): 5.7; Firefly, cmpd/DMSO repeat 1 (Table 13): 13.2; Firefly, cmpd/DMSO repeat 2 (Table 13): 11.9 |
| Cc1cc(C)cc(NC(=O)c2ccc3oc(=O)c(S(=O)(=O)c4ccc(F)cc4)cc3c2)c1 [Compound C176] | 3.7 | 9.6 |  |
| COc1ccc(NC(=O)c2ccc3oc(=O)c(S(=O)(=O)c4ccccc4)cc3c2)cc1 [Compound C177] | 17.4 | 8.2 | Firefly/Renilla (NR2F6 stable, clone F4) (Table 12): 2.3; Firefly, NR2F6 stable (clone F4)/pGL4 (Table 12): 8.5; Firefly, cmpd/DMSO repeat 1 (Table 12): 17.4; Firefly, cmpd/DMSO repeat 2 (Table 12): 8.2 |
| COc1ccc(NC(=O)c2ccc3oc(=O)c(S(=O)(=O)c4ccc(C)cc4)cc3c2)cc1 [Compound C178] | 15.2 | 16.9 |  |
| COc1ccc(NC(=O)c2ccc3oc(=O)c(S(=O)(=O)c4ccc(F)cc4)cc3c2)cc1 [Compound C179] | 8.7 | 10.1 |  |
| COc1ccc(NC(=O)c2ccc3oc(=O)c(S(=O)(=O)c4ccc(Cl)cc4)cc3c2)cc1 [Compound C180] | 34.0 | 34.5 | Firefly/Renilla (NR2F6 stable, clone F4) (Table 13): 1.1; Firefly, NR2F6 stable (clone F4)/pGL4 (Table 13): 13.1; Firefly, cmpd/DMSO repeat 1 (Table 13): 34.0; Firefly, cmpd/DMSO repeat 2 (Table 13): 34.5 |
| CCOc1ccccc1NC(=O)c1ccc2oc(=O)c(S(=O)(=O)c3ccc(F)cc3)cc2c1 [Compound C181] | 10.4 | 13.5 |  |
| O=c1oc2ccc(Cl)cc2cc1S(=O)(=O)c1cccc(F)c1 [Compound C182] | 16.2 | 17.3 | Firefly/Renilla (NR2F6 stable, clone F4) (Table 13): 1.2; Firefly, NR2F6 stable (clone F4)/pGL4 (Table 13): 8.2; Firefly, cmpd/DMSO repeat 1 (Table 13): 16.2; Firefly, cmpd/DMSO repeat 2 (Table 13): 17.3 |
| O=c1oc2ccc(Br)cc2cc1S(=O)(=O)c1cccc(F)c1 [Compound C183] | 1.2 | 1.2 |  |
| COc1cccc(S(=O)(=O)c2cc3cc(Cl)ccc3oc2=O)c1 [Compound C184] | 1.1 | 1.4 |  |

| SMILES | Firefly, cmpd/DMSO repeat 1 [1] | Firefly, cmpd/DMSO repeat 2 [1] | further results |
| --- | --- | --- | --- |
| COc1cccc(S(=O)(=O)c2cc3cc(Br)ccc3oc2=O)c1 [Compound C185] | 2.6 | 2.4 |  |
| Cc1cc(C)cc(S(=O)(=O)c2cc3cc(Cl)ccc3oc2=O)c1 [Compound C186] | 1.0 | 6.9 |  |
| Cc1cc(C)cc(S(=O)(=O)c2cc3cc(Br)ccc3oc2=O)c1 [Compound C187] | 0.8 | 0.7 |  |
| Cc1ccc(S(=O)(=O)c2cc3cc(Cl)ccc3oc2=O)cc1Cl [Compound C188] | 9.4 | 8.7 | Firefly/Renilla (NR2F6 stable, clone F4) (Table 13): 1.2; Firefly, NR2F6 stable (clone F4)/pGL4 (Table 13): 5.0; Firefly, cmpd/DMSO repeat 1 (Table 13): 9.4; Firefly, cmpd/DMSO repeat 2 (Table 13): 8.7 |
| Cc1ccc(S(=O)(=O)c2cc3cc(Br)ccc3oc2=O)cc1Cl [Compound C189] | 2.8 | 2.2 |  |
| Cc1cc(C)cc(S(=O)(=O)c2cc3cc(F)ccc3oc2=O)c1 [Compound C190] | 2.1 | 2.5 |  |
| O=c1oc2ccc(Cl)cc2cc1S(=O)(=O)c1cccc(Cl)c1 [Compound C191] | 8.6 | 12.8 |  |
| O=c1oc2ccc(Br)cc2cc1S(=O)(=O)c1cccc(Cl)c1 [Compound C192] | 1.8 | 2.4 |  |
| O=c1oc2ccc(Br)cc2cc1S(=O)(=O)c1cc(F)cc(F)c1 [Compound C193] | 1.8 | 1.9 |  |
| O=c1oc2ccc(Cl)cc2cc1S(=O)(=O)c1cc(F)cc(F)c1 [Compound C194] | 10.6 | 6.3 | Firefly/Renilla (NR2F6 stable, clone F4) (Table 13): 1.3; Firefly, NR2F6 stable (clone F4)/pGL4 (Table 13): 6.6; Firefly, cmpd/DMSO repeat 1 (Table 13): 10.6; Firefly, cmpd/DMSO repeat 2 (Table 13): 6.3 |
| N#Cc1cccc(S(=O)(=O)c2cc3cc(Cl)ccc3oc2=O)c1 [Compound C195] | 38.7 | 29.4 | Firefly/Renilla (NR2F6 stable, clone F4) (Table 12): 2.1; Firefly, NR2F6 stable (clone F4)/pGL4 (Table 12): 7.7; Firefly, cmpd/DMSO repeat 1 (Table 12): 38.7; Firefly, cmpd/DMSO repeat 2 (Table 12): 29.4 |
| N#Cc1cccc(S(=O)(=O)c2cc3cc(Br)ccc3oc2=O)c1 [Compound C196] | 3.8 | 3.4 |  |
| Cc1ccc(S(=O)(=O)c2cc3cc(Br)ccc3oc2=O)cc1 [Compound C197] | 17.6 | 14.8 | Firefly/Renilla (NR2F6 stable, clone F4) (Table 13): 1.1; Firefly, NR2F6 stable (clone F4)/pGL4 (Table 13): 6.3; Firefly, cmpd/DMSO repeat 1 (Table 13): 17.6; Firefly, cmpd/DMSO repeat 2 (Table 13): 14.8 |
| O=c1oc2ccc(Br)cc2cc1S(=O)(=O)c1ccc(F)cc1 [Compound C198] | 1.0 | 0.8 |  |
| COc1ccc(S(=O)(=O)c2cc3cc(Br)ccc3oc2=O)cc1 [Compound C199] | 19.3 | 16.1 |  |
| CC(C)(C)c1ccc(S(=O)(=O)c2cc3cc(Br)ccc3oc2=O)cc1 [Compound C200] | 11.0 | 8.1 | Firefly/Renilla (NR2F6 stable, clone F4) (Table 13): 1.2; Firefly, NR2F6 stable (clone F4)/pGL4 (Table 13): 5.4; Firefly, cmpd/DMSO repeat 1 (Table 13): 11.0; Firefly, cmpd/DMSO repeat 2 (Table 13): 8.1 |
| O=c1oc2ccc(Cl)cc2cc1S(=O)(=O)c1ccccc1 [Compound C201] | 6.1 | 5.3 |  |
| Cc1ccc(S(=O)(=O)c2cc3cc(Cl)ccc3oc2=O)cc1 [Compound C202] | 15.7 | 14.1 | Firefly/Renilla (NR2F6 stable, clone F4) (Table 12): 1.7; Firefly, NR2F6 stable (clone F4)/pGL4 (Table 12): 6.1; Firefly, cmpd/DMSO repeat 1 (Table 12): 15.7; Firefly, cmpd/DMSO repeat 2 (Table 12): 14.1 |
| COc1ccc(S(=O)(=O)c2cc3cc(Cl)ccc3oc2=O)cc1 [Compound C203] | 9.5 | 15.5 |  |
| O=c1oc2ccc(Cl)cc2cc1S(=O)(=O)c1ccc(Br)cc1 [Compound C204] | 5.0 | 5.8 |  |
| CC(C)(C)c1ccc(S(=O)(=O)c2cc3cc(Cl)ccc3oc2=O)cc1 [Compound C205] | 6.9 | 6.0 |  |
